ChEMBL document CHEMBL3045772, “Amide derivatives of [6-acyl-2-benzothiazolinon-3-yl] acetic acids as potential analgesic and anti-inflammatory compounds” (Med Chem Res, 2010)
Each block holds one molecule with its values, some of them ahead of it. The source made the active and inactive calls. The rule behind the calls is not given here.

What was measured:
[1] = tested on: Mus musculus; experiment: Anti-inflammatory activity in Mus musculus Swiss albino (mouse) assessed as inhibition of carrageenan-induced edema at 100 mg/kg, po pretreated 60 min before carrageenan-challenge measured after 180 min; assay type: functional
[2] = molecular target: T1, Prostaglandin G/H synthase 2 (Homo sapiens) (UniProt P35354); details: Blood, at 10 µM;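 also: human whole blood COX-2 activity read out as PGE2 level measured by enzyme immunoassay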
T1 sequence (whole entry): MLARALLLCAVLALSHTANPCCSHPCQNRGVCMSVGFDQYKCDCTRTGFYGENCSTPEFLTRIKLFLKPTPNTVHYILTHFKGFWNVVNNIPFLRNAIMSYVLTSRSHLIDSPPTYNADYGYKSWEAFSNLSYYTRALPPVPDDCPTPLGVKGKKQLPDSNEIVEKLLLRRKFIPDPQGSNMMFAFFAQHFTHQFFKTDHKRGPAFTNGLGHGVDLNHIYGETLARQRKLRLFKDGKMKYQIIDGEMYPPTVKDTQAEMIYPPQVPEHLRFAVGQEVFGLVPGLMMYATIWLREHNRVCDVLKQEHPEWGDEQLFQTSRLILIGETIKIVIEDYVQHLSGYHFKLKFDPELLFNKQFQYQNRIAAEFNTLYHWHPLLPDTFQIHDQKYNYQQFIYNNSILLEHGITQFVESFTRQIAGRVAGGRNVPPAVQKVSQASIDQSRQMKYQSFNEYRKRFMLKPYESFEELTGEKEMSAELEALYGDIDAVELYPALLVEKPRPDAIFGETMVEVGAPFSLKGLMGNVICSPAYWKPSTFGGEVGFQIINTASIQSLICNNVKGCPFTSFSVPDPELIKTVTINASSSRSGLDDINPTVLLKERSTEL
Description: Inhibition of cyclooxygenase-2 in Homo sapiens (human) whole blood assessed as PGE2 level at 10 uM by EIA

[3] = tested on: Mus musculus; experiment: Anti-inflammatory activity in Mus musculus Swiss albino (mouse) assessed as inhibition of carrageenan-induced edema at 100 mg/kg, po pretreated 60 min before carrageenan-challenge measured after 90 min; assay type: functional
[4] = molecular target: Prostaglandin G/H synthase 1 (Homo sapiens) (UniProt P23219); details: Blood, at 10 µM;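 also: human whole blood assay, COX-1 activity read out as TXB2 level by enzyme immunoassay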
Chain of Prostaglandin G/H synthase 1 (Homo sapiens) (P23219 whole entry): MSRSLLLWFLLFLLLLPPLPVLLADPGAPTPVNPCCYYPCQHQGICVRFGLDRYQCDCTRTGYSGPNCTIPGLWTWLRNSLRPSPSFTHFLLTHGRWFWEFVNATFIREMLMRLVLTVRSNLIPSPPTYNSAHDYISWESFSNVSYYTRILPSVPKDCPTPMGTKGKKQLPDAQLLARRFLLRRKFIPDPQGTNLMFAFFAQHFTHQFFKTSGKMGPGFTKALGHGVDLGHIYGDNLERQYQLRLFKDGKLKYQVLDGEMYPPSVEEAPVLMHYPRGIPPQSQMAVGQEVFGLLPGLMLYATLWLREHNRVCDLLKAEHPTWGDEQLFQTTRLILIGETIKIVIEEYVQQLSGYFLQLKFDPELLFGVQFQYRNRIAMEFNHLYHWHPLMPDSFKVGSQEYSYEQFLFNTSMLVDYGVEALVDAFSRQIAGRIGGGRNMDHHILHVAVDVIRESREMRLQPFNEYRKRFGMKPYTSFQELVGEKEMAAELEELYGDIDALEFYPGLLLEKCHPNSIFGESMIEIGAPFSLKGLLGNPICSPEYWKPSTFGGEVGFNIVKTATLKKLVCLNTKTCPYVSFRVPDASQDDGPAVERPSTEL
Description: Inhibition of cyclooxygenase-1 in Homo sapiens (human) whole blood assessed as TXB2 level at 10 uM by EIA

[5] = tested on: Mus musculus; experiment: Analgesic activity in Mus musculus Swiss albino (mouse) assessed as inhibition of p-benzoquinone-induced writhing at 100 mg/kg, po pretreated 60 min before p-benzoquinone challenge; assay type: functional
[6] = tested on: Mus musculus; experiment: Gastrointestinal toxicity in Mus musculus Swiss albino (mouse) assessed as ratio of ulcer at 100 mg/kg, po measured after 2 hr; assay type: organism-based; set-up: dose 100 mg/kg, route oral; details: in vivo
[7] = tested on: Mus musculus; experiment: Anti-inflammatory activity in Mus musculus Swiss albino (mouse) assessed as inhibition of carrageenan-induced edema at 100 mg/kg, po pretreated 60 min before carrageenan-challenge measured after 270 min; assay type: functional
[8] = molecular target: T2, Polyunsaturated fatty acid 5-lipoxygenase (Homo sapiens) (UniProt P09917); experiment: Inhibition of 5-LOX (unknown origin) at 10 uM
T2 sequence (whole entry): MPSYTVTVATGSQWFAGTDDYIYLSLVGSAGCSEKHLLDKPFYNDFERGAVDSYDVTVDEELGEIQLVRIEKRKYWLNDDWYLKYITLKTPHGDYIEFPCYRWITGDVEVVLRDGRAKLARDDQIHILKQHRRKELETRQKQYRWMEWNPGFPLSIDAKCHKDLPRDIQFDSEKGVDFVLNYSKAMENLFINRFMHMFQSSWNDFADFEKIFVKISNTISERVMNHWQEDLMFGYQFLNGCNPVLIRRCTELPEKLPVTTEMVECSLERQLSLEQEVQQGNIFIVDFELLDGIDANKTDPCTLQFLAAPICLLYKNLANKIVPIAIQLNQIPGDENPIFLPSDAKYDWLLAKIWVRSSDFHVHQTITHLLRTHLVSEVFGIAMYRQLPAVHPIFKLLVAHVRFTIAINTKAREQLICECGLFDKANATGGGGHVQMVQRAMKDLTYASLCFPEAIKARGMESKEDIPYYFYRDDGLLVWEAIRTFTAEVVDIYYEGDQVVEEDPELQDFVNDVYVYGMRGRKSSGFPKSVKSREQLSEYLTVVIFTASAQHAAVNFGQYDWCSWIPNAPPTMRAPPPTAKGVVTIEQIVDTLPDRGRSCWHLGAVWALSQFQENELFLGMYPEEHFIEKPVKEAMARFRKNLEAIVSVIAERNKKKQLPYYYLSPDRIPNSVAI

[9] = tested on: Mus musculus; experiment: Anti-inflammatory activity in Mus musculus Swiss albino (mouse) assessed as inhibition of carrageenan-induced edema at 100 mg/kg, po pretreated 60 min before carrageenan-challenge measured after 360 min; assay type: functional

SMILES: O=C(Cn1c(=O)sc2cc(C(=O)c3ccccc3)ccc21)Nc1ccccc1
inhibition in vivo at 100 mg/kg [1]: 3.5%
inhibition [2]: 1.47%
inhibition in vivo at 100 mg/kg [3]: 3.6%
inhibition [4]: 40.4%
inhibition in vivo at 100 mg/kg [5]: 17.3%
Activity [6]: Non-toxic
inhibition in vivo at 100 mg/kg [7]: 12.5%
inhibition [8]: 6%

SMILES: O=C(Cn1c(=O)sc2cc(C(=O)c3ccccc3Cl)ccc21)Nc1ccccc1
inhibition in vivo at 100 mg/kg [1]: 11%
inhibition [2]: inactive
inhibition in vivo at 100 mg/kg [3]: 5.3%
inhibition [4]: 3.42%
inhibition in vivo at 100 mg/kg [5]: 20.6%
Activity [6]: Non-toxic
inhibition in vivo at 100 mg/kg [7]: 10.9%
inhibition in vivo at 100 mg/kg [9]: 10.5%
inhibition [8]: 16%

SMILES: O=C(Cn1c(=O)sc2cc(C(=O)c3ccccc3Cl)ccc21)Nc1cccc(Cl)c1
inhibition in vivo at 100 mg/kg [1]: 22%
inhibition [2]: inactive
inhibition in vivo at 100 mg/kg [3]: 23.9%
inhibition [4]: 7.27%
inhibition in vivo at 100 mg/kg [5]: 41.8%
Activity [6]: Non-toxic
inhibition in vivo at 100 mg/kg [7]: 30.4%
inhibition in vivo at 100 mg/kg [9]: 31.3%
inhibition [8]: 35%

SMILES: O=C(Cn1c(=O)sc2cc(C(=O)c3ccccc3Cl)ccc21)Nc1ccccn1
inhibition [1]: inactive
inhibition [2]: 28.9%
inhibition [3]: inactive
inhibition [4]: 45.2%
inhibition in vivo at 100 mg/kg [5]: 15.5%
Activity [6]: Non-toxic
inhibition [7]: inactive
inhibition [9]: inactive
inhibition [8]: 3%

inhibition [4]: 100%
SMILES: CS(=O)(=O)c1ccc(-c2cc(Br)sc2-c2ccc(F)cc2)cc1

SMILES: Cc1cccc(NC(=O)Cn2c(=O)sc3cc(C(=O)c4ccccc4F)ccc32)n1
inhibition in vivo at 100 mg/kg [1]: 3.7%
inhibition [2]: 12.6%
inhibition in vivo at 100 mg/kg [3]: 1.7%
inhibition [4]: 28%
inhibition in vivo at 100 mg/kg [5]: 22.2%
Activity [6]: Non-toxic
inhibition in vivo at 100 mg/kg [7]: 1.2%
inhibition in vivo at 100 mg/kg [9]: 2.3%
inhibition [8]: 20%

SMILES: O=C(Cn1c(=O)sc2cc(C(=O)c3ccccc3F)ccc21)Nc1ccc(Cl)cc1
inhibition in vivo at 100 mg/kg [1]: 29%
inhibition [2]: inactive
inhibition in vivo at 100 mg/kg [3]: 25.9%
inhibition [4]: 10.4%
inhibition in vivo at 100 mg/kg [5]: 54.3%
Activity [6]: Non-toxic
inhibition in vivo at 100 mg/kg [7]: 30.3%
inhibition in vivo at 100 mg/kg [9]: 31.7%
inhibition [8]: inactive

SMILES: CC(=O)Oc1ccccc1C(=O)O [ASPIRIN]
inhibition in vivo at 100 mg/kg [5]: 50.1%
Activity [6]: Toxic

SMILES: Cc1ccnc(NC(=O)Cn2c(=O)sc3cc(C(=O)c4ccccc4F)ccc32)c1
inhibition in vivo at 100 mg/kg [1]: 6.8%
inhibition [2]: inactive
inhibition in vivo at 100 mg/kg [3]: 2.8%
inhibition [4]: 1.98%
inhibition in vivo at 100 mg/kg [5]: 27%
Activity [6]: Toxic
inhibition in vivo at 100 mg/kg [7]: 6.1%
inhibition in vivo at 100 mg/kg [9]: 4.6%
inhibition [8]: 19%

SMILES: O=C(Cn1c(=O)sc2cc(C(=O)c3ccccc3F)ccc21)Nc1ccccn1
inhibition [1]: inactive
inhibition [2]: inactive
inhibition [3]: inactive
inhibition [4]: 17.8%
inhibition in vivo at 100 mg/kg [5]: 18.7%
Activity [6]: Non-toxic
inhibition [7]: inactive
inhibition [9]: inactive
inhibition [8]: inactive

SMILES: O=C(Cn1c(=O)sc2cc(C(=O)c3ccccc3)ccc21)Nc1ccc(Cl)cc1
inhibition in vivo at 100 mg/kg [1]: 15.2%
inhibition [2]: 23.1%
inhibition in vivo at 100 mg/kg [3]: 6.6%
inhibition [4]: inactive
inhibition in vivo at 100 mg/kg [5]: 26.5%
Activity [6]: Non-toxic
inhibition in vivo at 100 mg/kg [7]: 22.9%
inhibition in vivo at 100 mg/kg [9]: 16.5%
inhibition [8]: inactive

SMILES: O=C(Cn1c(=O)sc2cc(C(=O)c3ccccc3F)ccc21)Nc1ccccc1
inhibition in vivo at 100 mg/kg [1]: 23.5%
inhibition [2]: inactive
inhibition in vivo at 100 mg/kg [3]: 11.3%
inhibition [4]: 5.61%
inhibition in vivo at 100 mg/kg [5]: 26.8%
Activity [6]: Non-toxic
inhibition in vivo at 100 mg/kg [7]: 22.6%
inhibition in vivo at 100 mg/kg [9]: 19.5%
inhibition [8]: 24%

SMILES: Cc1cccc(NC(=O)Cn2c(=O)sc3cc(C(=O)c4ccccc4)ccc32)n1
inhibition [1]: inactive
inhibition [2]: inactive
inhibition [3]: inactive
inhibition [4]: inactive
inhibition [5]: inactive
Activity [6]: Toxic
inhibition [7]: inactive
inhibition [9]: inactive
inhibition [8]: 26%

SMILES: Cc1ccnc(NC(=O)Cn2c(=O)sc3cc(C(=O)c4ccccc4Cl)ccc32)c1
inhibition in vivo at 100 mg/kg [1]: 3.5%
inhibition [2]: inactive
inhibition in vivo at 100 mg/kg [3]: 3.8%
inhibition [4]: 10.1%
inhibition in vivo at 100 mg/kg [5]: 8.1%
Activity [6]: Toxic
inhibition in vivo at 100 mg/kg [7]: 5.1%
inhibition in vivo at 100 mg/kg [9]: 3.7%
inhibition [8]: 11%

SMILES: O=C(Cn1c(=O)sc2cc(C(=O)c3ccccc3)ccc21)Nc1cccc(Cl)c1
inhibition in vivo at 100 mg/kg [1]: 10.7%
inhibition [2]: inactive
inhibition in vivo at 100 mg/kg [3]: 5.6%
inhibition [4]: inactive
inhibition in vivo at 100 mg/kg [5]: 23.1%
Activity [6]: Non-toxic
inhibition in vivo at 100 mg/kg [7]: 10.8%
inhibition in vivo at 100 mg/kg [9]: 8%
inhibition [8]: 46%

SMILES: O=C(Cn1c(=O)sc2cc(C(=O)c3ccccc3F)ccc21)Nc1cccc(Cl)c1
inhibition in vivo at 100 mg/kg [1]: 18.4%
inhibition [2]: 19.3%
inhibition in vivo at 100 mg/kg [3]: 15.8%
inhibition [4]: 20.5%
inhibition in vivo at 100 mg/kg [5]: 49.9%
Activity [6]: Non-toxic
inhibition in vivo at 100 mg/kg [7]: 25.5%
inhibition in vivo at 100 mg/kg [9]: 28.2%
inhibition [8]: 31%

SMILES: O=C(Cn1c(=O)sc2cc(C(=O)c3ccccc3Cl)ccc21)Nc1ccc(Cl)cc1
inhibition in vivo at 100 mg/kg [1]: 28.4%
inhibition [2]: 53.1%
inhibition in vivo at 100 mg/kg [3]: 25.8%
inhibition [4]: 39.2%
inhibition in vivo at 100 mg/kg [5]: 47.3%
Activity [6]: Non-toxic
inhibition in vivo at 100 mg/kg [7]: 31.9%
inhibition in vivo at 100 mg/kg [9]: 33.2%
inhibition [8]: inactive

SMILES: Cc1cccc(NC(=O)Cn2c(=O)sc3cc(C(=O)c4ccccc4Cl)ccc32)n1
inhibition [1]: inactive
inhibition [2]: 2.21%
inhibition [3]: inactive
inhibition [4]: 9.84%
inhibition in vivo at 100 mg/kg [5]: 15.9%
Activity [6]: Non-toxic
inhibition [7]: inactive
inhibition [9]: inactive
inhibition [8]: 28%

SMILES: O=C(Cn1c(=O)sc2cc(C(=O)c3ccccc3)ccc21)Nc1ccccn1
inhibition [1]: inactive
inhibition [2]: inactive
inhibition [3]: inactive
inhibition [4]: 49.8%
inhibition [5]: inactive
Activity [6]: Non-toxic
inhibition [7]: inactive
inhibition [9]: inactive
inhibition [8]: inactive

SMILES: Cc1ccnc(NC(=O)Cn2c(=O)sc3cc(C(=O)c4ccccc4)ccc32)c1
inhibition [1]: inactive
inhibition [2]: 6.83%
inhibition [3]: inactive
inhibition [4]: 50%
inhibition [5]: inactive
Activity [6]: Toxic
inhibition [7]: inactive
inhibition [9]: inactive
inhibition [8]: 11%
